Laboratory results as given in ChEMBL document CHEMBL1129252, “Identification of a 3-hydroxylated tacrine metabolite in rat and man: metabolic profiling implications and pharmacology” (J Med Chem, 1996).

Tests used:
Acetylcholinesterase [1] = molecular target: T1, Acetylcholinesterase (Rattus norvegicus, UniProt P37136)
T1 sequence (P37136 whole entry): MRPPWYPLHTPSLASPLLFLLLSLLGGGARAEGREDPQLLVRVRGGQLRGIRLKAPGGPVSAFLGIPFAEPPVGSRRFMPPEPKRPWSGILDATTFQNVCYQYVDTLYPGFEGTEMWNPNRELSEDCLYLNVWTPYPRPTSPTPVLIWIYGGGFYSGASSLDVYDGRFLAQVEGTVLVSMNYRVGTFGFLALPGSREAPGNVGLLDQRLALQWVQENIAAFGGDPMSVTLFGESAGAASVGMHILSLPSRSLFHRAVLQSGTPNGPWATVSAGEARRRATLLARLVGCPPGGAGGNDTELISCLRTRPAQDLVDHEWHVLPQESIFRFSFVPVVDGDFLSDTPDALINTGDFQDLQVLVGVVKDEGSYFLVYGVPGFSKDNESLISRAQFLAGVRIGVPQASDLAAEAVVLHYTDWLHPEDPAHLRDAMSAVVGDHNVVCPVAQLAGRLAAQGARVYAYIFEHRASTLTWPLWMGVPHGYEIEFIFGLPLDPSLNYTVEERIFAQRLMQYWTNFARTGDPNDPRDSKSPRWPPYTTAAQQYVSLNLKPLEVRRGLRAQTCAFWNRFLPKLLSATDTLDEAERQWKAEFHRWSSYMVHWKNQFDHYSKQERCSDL
Description: Inhibition of Acetylcholinesterase in rat red blood cell

Acetylcholinesterase [2] = molecular target: T2, Acetylcholinesterase (Mus musculus, UniProt P21836)
T2 sequence (P21836 whole entry): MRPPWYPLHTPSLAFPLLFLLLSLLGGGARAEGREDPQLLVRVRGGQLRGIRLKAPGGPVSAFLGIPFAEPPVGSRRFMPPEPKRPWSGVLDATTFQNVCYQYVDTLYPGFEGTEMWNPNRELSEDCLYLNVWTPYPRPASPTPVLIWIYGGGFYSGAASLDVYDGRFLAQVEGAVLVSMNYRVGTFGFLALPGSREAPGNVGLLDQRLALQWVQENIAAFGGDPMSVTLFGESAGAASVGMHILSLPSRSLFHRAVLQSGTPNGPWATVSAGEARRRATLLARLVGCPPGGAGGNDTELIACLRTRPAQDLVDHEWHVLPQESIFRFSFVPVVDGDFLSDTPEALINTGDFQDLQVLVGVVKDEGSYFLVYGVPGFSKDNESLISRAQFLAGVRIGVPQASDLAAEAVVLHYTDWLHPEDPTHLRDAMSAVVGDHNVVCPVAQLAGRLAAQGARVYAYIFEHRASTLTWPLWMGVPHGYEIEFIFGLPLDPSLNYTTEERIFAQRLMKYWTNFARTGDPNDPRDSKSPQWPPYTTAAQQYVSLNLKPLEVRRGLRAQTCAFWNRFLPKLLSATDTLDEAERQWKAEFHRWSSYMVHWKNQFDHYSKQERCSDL
Description: Inhibition of Acetylcholinesterase in mouse red blood cell

Acetylcholinesterase [3] = molecular target: Acetylcholinesterase (Homo sapiens, UniProt P22303)
Acetylcholinesterase (Homo sapiens, UniProt P22303), sequence (P22303 whole entry): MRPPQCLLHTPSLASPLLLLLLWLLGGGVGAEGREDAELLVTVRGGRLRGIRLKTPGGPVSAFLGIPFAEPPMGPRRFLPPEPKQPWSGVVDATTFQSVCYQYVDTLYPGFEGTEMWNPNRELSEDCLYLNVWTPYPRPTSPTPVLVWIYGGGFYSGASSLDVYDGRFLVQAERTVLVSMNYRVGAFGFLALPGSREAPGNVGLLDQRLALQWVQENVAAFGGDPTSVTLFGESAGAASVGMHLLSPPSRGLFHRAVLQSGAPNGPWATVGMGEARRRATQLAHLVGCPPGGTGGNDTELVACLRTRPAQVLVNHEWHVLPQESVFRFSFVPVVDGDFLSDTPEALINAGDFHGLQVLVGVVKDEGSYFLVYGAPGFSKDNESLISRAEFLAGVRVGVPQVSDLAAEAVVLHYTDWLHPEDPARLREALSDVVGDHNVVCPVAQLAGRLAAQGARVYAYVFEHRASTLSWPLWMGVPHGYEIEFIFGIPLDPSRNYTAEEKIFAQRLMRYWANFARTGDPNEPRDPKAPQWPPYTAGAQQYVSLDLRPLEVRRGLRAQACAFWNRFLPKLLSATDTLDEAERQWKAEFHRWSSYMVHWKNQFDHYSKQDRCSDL
Description: Inhibition of Acetylcholinesterase in human red blood cell

Row | SMILES | IC50 (Acetylcholinesterase [1]) [nM] | IC50 (Acetylcholinesterase [2]) [nM] | IC50 (Acetylcholinesterase [3]) [nM]
1 | Nc1c2c(nc3ccccc13)CCCC2O (stereo not given) [VELNACRINE] | 361 | – | –
2 | Nc1c2c(nc3ccccc13)C(O)CCC2 (stereo not given) | 411 | 1430 | 521
3 | Nc1c2c(nc3ccccc13)CC(O)CC2 (stereo not given) [7-HYDROXYTACRINE] | 483 | 1210 | 623
4 | Nc1c2c(nc3ccccc13)CCC(O)C2 (stereo not given) | 1770 | 4820 | 1610
